Experimental data published in patent US9738634B2, “Heterocyclic amide compound and herbicide” (SYNGENTA PARTICIPATIONS AG, priority 2013, dated 2017).

Columns and labels:
Type in all cases: in vivo
Italian ryegrass [1] = experiment: Test Example 4: weedkilling efficacy by foliar treatment; I: Italian ryegrass; conditions: treatment dosage 315 g/ha
Procedure, shortened: (§1)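 Seeds are spot-sown into sterilized diluvial soil and covered with about 1.5 cm of soil. After 14 days' greenhouse growth at 25 to 30° C, plants are sprayed on stems and leaves with diluted emulsion at the stated g/ha rate, then scored at 3 weeks.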

directly sown rice = experiment: Test Example 4: foliar treatment, effect on crop; b: directly sown rice; conditions: treatment dosage 315 g/ha
Procedure, shortened: as §1

fig-leafed goosefoot [2] = experiment: Test Example 3: weedkilling efficacy through soil treatment; M: fig-leafed goosefoot; conditions: treatment dosage 315 g/ha
Procedure, shortened: (§2)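 Crop and weed responses were judged three weeks after a uniform surface spray of the water-diluted emulsion at the given g/ha rate. Seeds sat beneath about 1.5 cm of sterilized diluvial soil, and boxes stood in a greenhouse at 25 to 30° C.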

soybean [3] = experiment: Test Example 4: foliar treatment, effect on crop; d: soybean; conditions: treatment dosage 315 g/ha
Procedure, shortened: as §1

green foxtail [4] = experiment: Test Example 3: weedkilling efficacy through soil treatment; E: green foxtail; conditions: treatment dosage 315 g/ha
Procedure, shortened: as §2

beet [5] = experiment: Test Example 4: foliar treatment, effect on crop; f: beet; conditions: treatment dosage 315 g/ha
Procedure, shortened: as §1

crabgrass [6] = experiment: Test Example 3: weedkilling efficacy through soil treatment; D: crabgrass; conditions: treatment dosage 315 g/ha
Procedure, shortened: as §2

green foxtail [7] = experiment: Test Example 4: weedkilling efficacy by foliar treatment; E: green foxtail; conditions: treatment dosage 315 g/ha
Procedure, shortened: as §1

beet [8] = experiment: Test Example 3: soil treatment, effect on crop; f: beet; conditions: treatment dosage 315 g/ha
Procedure, shortened: as §2

barnyard grass [9] = experiment: Test Example 1: weedkilling efficacy, preemergent weed treatment in the submerged state; A: barnyard grass; conditions: treatment dosage 252 g/ha
Procedure, shortened: (§3)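 Submerged pre-emergence treatment, water-surface application of compound emulsion at g/ha dosages; 4 cm flooded alluvial soil, weeds sown and 2.5-leaf rice transplanted same day. Rated after 3 weeks, greenhouse.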

barnyard grass [10] = experiment: Test Example 2: weedkilling efficacy, growth period weed treatment in the submerged state; A: barnyard grass; conditions: treatment dosage 252 g/ha
Procedure, shortened: (§4)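 Seedlings at 1-2 leaves in 4 cm-deep submerged alluvial soil received emulsion formulations on the water surface, dosed per hectare; effects were judged 3 weeks on.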

fig-leafed goosefoot [11] = experiment: Test Example 4: weedkilling efficacy by foliar treatment; M: fig-leafed goosefoot; conditions: treatment dosage 315 g/ha
Procedure, shortened: as §1

Indian mallow [12] = experiment: Test Example 3: weedkilling efficacy through soil treatment; K: Indian mallow; conditions: treatment dosage 315 g/ha
Procedure, shortened: as §2

wild oat [13] = experiment: Test Example 3: weedkilling efficacy through soil treatment; G: wild oat; conditions: treatment dosage 315 g/ha
Procedure, shortened: as §2

oval-leafed pondweed [14] = experiment: Test Example 2: weedkilling efficacy, growth period weed treatment in the submerged state; C: oval-leafed pondweed; conditions: treatment dosage 252 g/ha
Procedure, shortened: as §4

black-grass [15] = experiment: Test Example 3: weedkilling efficacy through soil treatment; H: black-grass; conditions: treatment dosage 315 g/ha
Procedure, shortened: as §2

Italian ryegrass [16] = experiment: Test Example 3: weedkilling efficacy through soil treatment; I: Italian ryegrass; conditions: treatment dosage 315 g/ha
Procedure, shortened: as §2

bulrush [17] = experiment: Test Example 1: weedkilling efficacy, preemergent weed treatment in the submerged state; B: bulrush; conditions: treatment dosage 252 g/ha
Procedure, shortened: as §3

redroot pigweed [18] = experiment: Test Example 3: weedkilling efficacy through soil treatment; L: redroot pigweed; conditions: treatment dosage 315 g/ha
Procedure, shortened: as §2

oval-leafed pondweed [19] = experiment: Test Example 1: weedkilling efficacy, preemergent weed treatment in the submerged state; C: oval-leafed pondweed; conditions: treatment dosage 252 g/ha
Procedure, shortened: as §3

black-grass [20] = experiment: Test Example 4: weedkilling efficacy by foliar treatment; H: black-grass; conditions: treatment dosage 315 g/ha
Procedure, shortened: as §1

bulrush [21] = experiment: Test Example 2: weedkilling efficacy, growth period weed treatment in the submerged state; B: bulrush; conditions: treatment dosage 252 g/ha
Procedure, shortened: as §4

redroot pigweed [22] = experiment: Test Example 4: weedkilling efficacy by foliar treatment; L: redroot pigweed; conditions: treatment dosage 315 g/ha
Procedure, shortened: as §1

transplanted rice = experiment: Test Example 1: preemergent weed treatment in the submerged state, effect on crop; a: transplanted rice; conditions: treatment dosage 252 g/ha
Procedure, shortened: as §3

Indian mallow [23] = experiment: Test Example 4: weedkilling efficacy by foliar treatment; K: Indian mallow; conditions: treatment dosage 315 g/ha
Procedure, shortened: as §1

wheat [24] = experiment: Test Example 4: foliar treatment, effect on crop; e: wheat; conditions: treatment dosage 315 g/ha
Procedure, shortened: as §1

corn [25] = experiment: Test Example 3: soil treatment, effect on crop; c: corn; conditions: treatment dosage 315 g/ha
Procedure, shortened: as §2

chickweed [26] = experiment: Test Example 3: weedkilling efficacy through soil treatment; N: chickweed; conditions: treatment dosage 315 g/ha
Procedure, shortened: as §2

wild oat [27] = experiment: Test Example 4: weedkilling efficacy by foliar treatment; G: wild oat; conditions: treatment dosage 315 g/ha
Procedure, shortened: as §1

chickweed [28] = experiment: Test Example 4: weedkilling efficacy by foliar treatment; N: chickweed; conditions: treatment dosage 315 g/ha
Procedure, shortened: as §1

wheat [29] = experiment: Test Example 3: soil treatment, effect on crop; e: wheat; conditions: treatment dosage 315 g/ha
Procedure, shortened: as §2

birds-eye speedwell [30] = experiment: Test Example 4: weedkilling efficacy by foliar treatment; p: birds-eye speedwell; conditions: treatment dosage 315 g/ha
Procedure, shortened: as §1

soybean [31] = experiment: Test Example 3: soil treatment, effect on crop; d: soybean; conditions: treatment dosage 315 g/ha
Procedure, shortened: as §2

corn [32] = experiment: Test Example 4: foliar treatment, effect on crop; c: corn; conditions: treatment dosage 315 g/ha
Procedure, shortened: as §1

crabgrass [33] = experiment: Test Example 4: weedkilling efficacy by foliar treatment; D: crabgrass; conditions: treatment dosage 315 g/ha
Procedure, shortened: as §1

catchweed = experiment: Test Example 4: weedkilling efficacy by foliar treatment; O: catchweed; conditions: treatment dosage 315 g/ha
Procedure, shortened: as §1

birds-eye speedwell [34] = experiment: Test Example 3: weedkilling efficacy through soil treatment; p: birds-eye speedwell; conditions: treatment dosage 315 g/ha
Procedure, shortened: as §2

| Compound | I (Italian ryegrass) weedkilling efficacy grade (Italian ryegrass [1]) | b (directly sown rice) effect on crop grade (directly sown rice) | M (fig-leafed goosefoot) weedkilling efficacy grade (fig-leafed goosefoot [2]) | d (soybean) effect on crop grade (soybean [3]) | E (green foxtail) weedkilling efficacy grade (green foxtail [4]) | D (crabgrass) weedkilling efficacy grade (crabgrass [6]) | E (green foxtail) weedkilling efficacy grade (green foxtail [7]) | f (beet) effect on crop grade (beet [8]) | A (barnyard grass) weedkilling efficacy grade (barnyard grass [9]) | A (barnyard grass) weedkilling efficacy grade (barnyard grass [10]) | M (fig-leafed goosefoot) weedkilling efficacy grade (fig-leafed goosefoot [11]) | K (Indian mallow) weedkilling efficacy grade (Indian mallow [12]) | G (wild oat) weedkilling efficacy grade (wild oat [13]) | C (oval-leafed pondweed) weedkilling efficacy grade (oval-leafed pondweed [14]) | H (black-grass) weedkilling efficacy grade (black-grass [15]) | I (Italian ryegrass) weedkilling efficacy grade (Italian ryegrass [16]) | B (bulrush) weedkilling efficacy grade (bulrush [17]) | L (redroot pigweed) weedkilling efficacy grade (redroot pigweed [18]) | C (oval-leafed pondweed) weedkilling efficacy grade (oval-leafed pondweed [19]) | H (black-grass) weedkilling efficacy grade (black-grass [20]) | also measured |
| --- | --- | --- | --- | --- | --- | --- | --- | --- | --- | --- | --- | --- | --- | --- | --- | --- | --- | --- | --- | --- | --- |
| CC1=C(c2ccccc2)C(=O)N(C(C)(C)C(=O)Nc2cncc(Cl)c2)CO1 [B-3-02] | 5 (weed kill ratio 90% or more, (practically complete withering)) | 5 (weed kill ratio 90% or more, (practically complete withering)) | 4 (weed kill ratio 70% or more, less than 90%) | 4 (weed kill ratio 70% or more, less than 90%) | 5 (weed kill ratio 90% or more, (practically complete withering)) | 5 (weed kill ratio 90% or more, (practically complete withering)) | 5 (weed kill ratio 90% or more, (practically complete withering)) | 4 (weed kill ratio 70% or more, less than 90%) | 5 (weed kill ratio 90% or more, (practically complete withering)) | 4 (weed kill ratio 70% or more, less than 90%) | 2 (weed kill ratio 20% or more, less than 40%) | 3 (weed kill ratio 40% or more, less than 70%) | 5 (weed kill ratio 90% or more, (practically complete withering)) | 5 (weed kill ratio 90% or more, (practically complete withering)) | 5 (weed kill ratio 90% or more, (practically complete withering)) | 5 (weed kill ratio 90% or more, (practically complete withering)) | 5 (weed kill ratio 90% or more, (practically complete withering)) | 5 (weed kill ratio 90% or more, (practically complete withering)) | 5 (weed kill ratio 90% or more, (practically complete withering)) | 5 (weed kill ratio 90% or more, (practically complete withering)) | f (beet) effect on crop grade (beet [5]): 3 (weed kill ratio 40% or more, less than 70%); B (bulrush) weedkilling efficacy grade (bulrush [21]): 5 (weed kill ratio 90% or more, (practically complete withering)); L (redroot pigweed) weedkilling efficacy grade (redroot pigweed [22]): 3 (weed kill ratio 40% or more, less than 70%); a (transplanted rice) effect on crop grade (transplanted rice): 3 (weed kill ratio 40% or more, less than 70%); K (Indian mallow) weedkilling efficacy grade (Indian mallow [23]): 4 (weed kill ratio 70% or more, less than 90%); e (wheat) effect on crop grade (wheat [24]): 3 (weed kill ratio 40% or more, less than 70%); c (corn) effect on crop grade (corn [25]): 3 (weed kill ratio 40% or more, less than 70%); N (chickweed) weedkilling efficacy grade (chickweed [26]): 4 (weed kill ratio 70% or more, less than 90%); G (wild oat) weedkilling efficacy grade (wild oat [27]): 5 (weed kill ratio 90% or more, (practically complete withering)); N (chickweed) weedkilling efficacy grade (chickweed [28]): 0 (weed kill ratio 5% or less (practically no effect)); e (wheat) effect on crop grade (wheat [29]): 5 (weed kill ratio 90% or more, (practically complete withering)); P (birds-eye speedwell) weedkilling efficacy grade (birds-eye speedwell [30]): 3 (weed kill ratio 40% or more, less than 70%); d (soybean) effect on crop grade (soybean [31]): 0 (weed kill ratio 5% or less (practically no effect)); c (corn) effect on crop grade (corn [32]): 4 (weed kill ratio 70% or more, less than 90%); D (crabgrass) weedkilling efficacy grade (crabgrass [33]): 5 (weed kill ratio 90% or more, (practically complete withering)); O (catchweed) weedkilling efficacy grade (catchweed): 4 (weed kill ratio 70% or more, less than 90%) |
| CC1=C(c2ccccc2)C(=O)N(C(C)(C)C(=O)Nc2ccnc(F)c2)CO1 [B-4-02] | 5 (weed kill ratio 90% or more, (practically complete withering)) | 5 (weed kill ratio 90% or more, (practically complete withering)) | 5 (weed kill ratio 90% or more, (practically complete withering)) | 4 (weed kill ratio 70% or more, less than 90%) | 5 (weed kill ratio 90% or more, (practically complete withering)) | 5 (weed kill ratio 90% or more, (practically complete withering)) | 5 (weed kill ratio 90% or more, (practically complete withering)) | 3 (weed kill ratio 40% or more, less than 70%) | 5 (weed kill ratio 90% or more, (practically complete withering)) | 3 (weed kill ratio 40% or more, less than 70%) | 4 (weed kill ratio 70% or more, less than 90%) | 4 (weed kill ratio 70% or more, less than 90%) | 5 (weed kill ratio 90% or more, (practically complete withering)) | 4 (weed kill ratio 70% or more, less than 90%) | 5 (weed kill ratio 90% or more, (practically complete withering)) | 5 (weed kill ratio 90% or more, (practically complete withering)) | 5 (weed kill ratio 90% or more, (practically complete withering)) | 5 (weed kill ratio 90% or more, (practically complete withering)) | 5 (weed kill ratio 90% or more, (practically complete withering)) | 5 (weed kill ratio 90% or more, (practically complete withering)) | P (birds-eye speedwell) weedkilling efficacy grade (birds-eye speedwell [34]): 5 (weed kill ratio 90% or more, (practically complete withering)); B (bulrush) weedkilling efficacy grade (bulrush [21]): 5 (weed kill ratio 90% or more, (practically complete withering)); L (redroot pigweed) weedkilling efficacy grade (redroot pigweed [22]): 4 (weed kill ratio 70% or more, less than 90%); a (transplanted rice) effect on crop grade (transplanted rice): 3 (weed kill ratio 40% or more, less than 70%); K (Indian mallow) weedkilling efficacy grade (Indian mallow [23]): 3 (weed kill ratio 40% or more, less than 70%); e (wheat) effect on crop grade (wheat [24]): 0 (weed kill ratio 5% or less (practically no effect)); c (corn) effect on crop grade (corn [25]): 4 (weed kill ratio 70% or more, less than 90%); N (chickweed) weedkilling efficacy grade (chickweed [26]): 4 (weed kill ratio 70% or more, less than 90%); G (wild oat) weedkilling efficacy grade (wild oat [27]): 5 (weed kill ratio 90% or more, (practically complete withering)); N (chickweed) weedkilling efficacy grade (chickweed [28]): 3 (weed kill ratio 40% or more, less than 70%); e (wheat) effect on crop grade (wheat [29]): 1 (weed kill ratio 5% or more, less than 20%); P (birds-eye speedwell) weedkilling efficacy grade (birds-eye speedwell [30]): 5 (weed kill ratio 90% or more, (practically complete withering)); d (soybean) effect on crop grade (soybean [31]): 1 (weed kill ratio 5% or more, less than 20%); c (corn) effect on crop grade (corn [32]): 4 (weed kill ratio 70% or more, less than 90%); D (crabgrass) weedkilling efficacy grade (crabgrass [33]): 5 (weed kill ratio 90% or more, (practically complete withering)); O (catchweed) weedkilling efficacy grade (catchweed): 5 (weed kill ratio 90% or more, (practically complete withering)) |
